Experimental data as given in patent US9504671B2, “Pharmaceutical compositions of spiro-oxindole compound for topical administration and their use as therapeutic agents” (Xenon Pharmaceuticals Inc., priority 2010, dated 2016).

Columns and labels:
[1] = system: STZ-induced neuropathic pain model; test: STZ model of diabetic neuropathy, von Frey; format: in vivo, male Sprague-Dawley rats; conditions: 50 mg on left foot, 30 minutes post-dosing
Excerpt: This study evaluates the efficacy of a pharmaceutical composition of the invention in the STZ-induced neuropathic pain model in male Sprague-Dawley rats, following acute dosing, as compared with a 5% (w/v) topical Lidocaine (Xylocaine®) and a 1.16% (w/v) topical Diclofenac (Voltaren®). A rodent model of painful peripheral diabetic neuropathy (PDN) that mimics human condition was created by inducing a diabetic state in the rat through the ablation of the insulin producing pancreatic beta cells. A single streptozotocin (STZ) injection destroys beta cells in rats and produces a diabetic state that over time progresses to painful Peripheral Diabetic Neuropathy (PDN).
Streptozotocin (STZ) was dissolved in citrate buffer (20 mM, pH 4.5) and administered at a dose of 60 mg/Kg, intraperitoneal, to induce pancreatic beta-cell death. Blood glucose level was measured once a week following injection, using the AccuSoft Blood Glucose Monitoring System. […] Hyperalgesia and allodynia, which are signs of diabetic neuropathic pain, were monitored using the von Frey test as described below. Von Frey measurements were recorded from both left and right paws. Only those with significant hyperalgesia as determined by reduced threshold, measured in grams, of paw withdrawal to the von Frey filament were enrolled in the study. […] During this time their health status was closely monitored.
The animals were randomly divided into 4 test groups (n=7 animals/group) including a vehicle control, a 5% (w/v) Lidocaine (Xylocaine®), a 1.16% (w/v) Diclofenac (Voltaren®), and a pharmaceutical composition with 4% (w/w) COMPOUND A. After baseline measurement, 50 mg of the test composition was applied on the entire left foot. […] The paw withdrawal thresholds of animals from mechanical tactile stimuli were measured using the Electrovonfrey anesthesiometer (Model 2290, IITC Life Science, Woodland Hills, Calif.). […] The force (g) required to elicit a crisp withdrawal response was recorded before dosing as a baseline measurement, and at 30 minutes post-dosing. […]

[2] = system: CCI-induced neuropathic pain model; test: time course of efficacy in neuropathic pain model, Chronic Constriction Injury, von Frey; format: in vivo, Sprague-Dawley rats
Procedure: Neuropathic pain is characterized by spontaneous pain and stimulus-evoked allodynia and hyperalgesia. Pharmaceutical compositions of the invention were evaluated in Chronic Constriction Injury model using Sprague-Dawley rats as described below.
An approximately 3 cm incision was made through the skin and the fascia at the mid thigh level of a rat's left hind leg using a no. 10 scalpel blade. The left sciatic nerve was exposed via blunt dissection through the biceps femoris with care to minimize haemorrhagia. Four loose ligatures were tied along the sciatic nerve using four chromic gut sutures at intervals of 1 mm to 2 mm apart. The tension of the loose ligatures was tight enough to induce slight constriction of the sciatic nerve when viewed under a dissection microscope at a magnification of 4 fold. As sham controls, the right sciatic nerve was exposed and manipulated in the same manner as described above, except sutures were not tied onto the nerve. Antibacterial ointment was applied directly into the wound, and the muscle was closed using sterilized sutures. Betadine® was applied onto the muscle and its surroundings, followed by skin closure with surgical clips.
A painful neuropathy was allowed to develop for at least 14 days in the ipsilateral leg as determined by lower paw withdrawal thresholds to a mechanical stimulus. Only those with significant hyperalgesia, as determined by reduced threshold of paw withdrawal to the von Frey filament, measured in grams, were enrolled in the study.
The response thresholds of animals to tactile stimuli were measured using the Model 2290 Electrovonfrey anesthesiometer (IITC Life Science, Woodland Hills, Calif.). Animals were placed in an elevated Plexiglass enclosure set on a mire mesh surface. After 15 minutes of accommodation, a von Frey hair was applied perpendicularly to the plantar surface of the ipsilateral hind paws of the animals with sufficient force, measured in grams, to elicit a crisp response of the paw. The response indicated a withdrawal from the painful stimulus and constituted the efficacy endpoint. The force (in grams) required to elicit a crisp withdrawal response was recorded before dosing as a baseline measurement, and at multiple time points post-dosing.
Three days prior to baseline measurement, animals were anaesthetized under isoflurane and the whole of the ipsilateral hind legs, including the upper sciatic notch thigh area, ankle and foot, was shaved. The animals were then randomly assigned to one of 4 different test groups including a vehicle control group, a 5% (w/v) Lidocaine (Xylocaine®), and 2 pharmaceutical compositions of the invention comprising COMPOUND A at 4% (w/w) containing either 5% or 10% Transcutol® P. After baseline measurement, 100 mg of the test composition was applied on the entire shaved area. The animals were then placed in plastic tubes for at least 15 minutes, to prevent early removal/ingestion of drug. Subsequently, animals were placed in the Plexiglas enclosure 15 minutes before von Frey measurement at the respective time points. Von Frey withdrawal thresholds were measured as the mean of several independent determinations made within 1-2 minutes of each other on the affected paw of each animal at 0.5, 1 and 2 hours post dosing.

For `O=C(O)Cc1ccccc1Nc1c(Cl)cccc1Cl` [Diclofenac], the “paw withdrawal threshold of treated paw, CFB” value ([1]; 1.16% (w/v) topical) was “No significant CFB”.

For `CCN(CC)CC(=O)Nc1c(C)cccc1C` [Lidocaine, reference compound], the “paw withdrawal threshold, percent mean change from baseline (CFB)” value ([2]; 5% (w/v) topical, 100 mg applied, 0.5 hours post-dosing) was “+23.1%”, the “paw withdrawal threshold, CFB” value ([2]; 5% (w/v) topical, time points later than 0.5 hours post-dosing, p>0.05) was “No significant changes” and the “duration of analgesic effects post-dosing” value ([2]; 5% topical) was “up to 0.5 hours”. For the same compound, the “paw withdrawal threshold of treated paw, percent mean change from baseline (CFB)” value ([1]; 5% (w/v) topical) was 25.9%.
